Measurements reported in patent publication US8410112B2, “Compounds useful as inhibitors of ATR kinase” (Vertex Pharmaceuticals Incorporated, priority 2008, dated 2013).
pKi: −log10 of the molar value.

molecular target: T1, full-length ATR (Homo sapiens, UniProt Q13535); assay: ATR Inhibition Assay (radioactive-phosphate incorporation); format: biochemical; settings: Ki(app); 5 nM full-length ATR, 10 μM ATP, 800 μM target peptide, 25° C.
T1 construct: in the presence of 5 nM full-length ATR
Description: Test compounds were screened for their ability to inhibit ATR kinase using a radioactive-phosphate incorporation assay. Assays were carried out in a mixture of 50 mM
Tris/HCl (pH 7.5), 10 mM MgCl2 and 1 mM DTT. Final substrate concentrations were 10 μM [γ-33P]ATP (3 mCi 33 P ATP/mmol ATP, Perkin Elmer) and 800 μM target peptide ([…]). Assays were carried out at 25° C. in the presence of 5 nM full-length ATR. An assay stock buffer solution was prepared containing all of the reagents listed above, with the exception of ATP and the test compound of interest. […] The plate was pre-incubated for 10 minutes at 25° C. and the reaction initiated by addition of 15 μL [γ-33P]ATP (final concentration 10 μM).
The reaction was stopped after […] by the addition of 30 μL 0.1M phosphoric acid containing 2 mM ATP. A multiscreen phosphocellulose filter 96-well plate (Millipore, Cat no. MAPHN0B50) was pretreated with 100 μL 0.2M phosphoric acid prior to the addition of 45 μL of the stopped assay mixture. The plate was washed with 5×200 μL 0.2M phosphoric acid.
After removing mean background values for all of the data points, Ki(app) data were calculated from non-linear regression analysis of the initial rate data using the Prism software package (GraphPad Prism version 3.0cx for Macintosh, GraphPad Software, San Diego Calif., USA).

T1 sequence (Q13535 whole entry): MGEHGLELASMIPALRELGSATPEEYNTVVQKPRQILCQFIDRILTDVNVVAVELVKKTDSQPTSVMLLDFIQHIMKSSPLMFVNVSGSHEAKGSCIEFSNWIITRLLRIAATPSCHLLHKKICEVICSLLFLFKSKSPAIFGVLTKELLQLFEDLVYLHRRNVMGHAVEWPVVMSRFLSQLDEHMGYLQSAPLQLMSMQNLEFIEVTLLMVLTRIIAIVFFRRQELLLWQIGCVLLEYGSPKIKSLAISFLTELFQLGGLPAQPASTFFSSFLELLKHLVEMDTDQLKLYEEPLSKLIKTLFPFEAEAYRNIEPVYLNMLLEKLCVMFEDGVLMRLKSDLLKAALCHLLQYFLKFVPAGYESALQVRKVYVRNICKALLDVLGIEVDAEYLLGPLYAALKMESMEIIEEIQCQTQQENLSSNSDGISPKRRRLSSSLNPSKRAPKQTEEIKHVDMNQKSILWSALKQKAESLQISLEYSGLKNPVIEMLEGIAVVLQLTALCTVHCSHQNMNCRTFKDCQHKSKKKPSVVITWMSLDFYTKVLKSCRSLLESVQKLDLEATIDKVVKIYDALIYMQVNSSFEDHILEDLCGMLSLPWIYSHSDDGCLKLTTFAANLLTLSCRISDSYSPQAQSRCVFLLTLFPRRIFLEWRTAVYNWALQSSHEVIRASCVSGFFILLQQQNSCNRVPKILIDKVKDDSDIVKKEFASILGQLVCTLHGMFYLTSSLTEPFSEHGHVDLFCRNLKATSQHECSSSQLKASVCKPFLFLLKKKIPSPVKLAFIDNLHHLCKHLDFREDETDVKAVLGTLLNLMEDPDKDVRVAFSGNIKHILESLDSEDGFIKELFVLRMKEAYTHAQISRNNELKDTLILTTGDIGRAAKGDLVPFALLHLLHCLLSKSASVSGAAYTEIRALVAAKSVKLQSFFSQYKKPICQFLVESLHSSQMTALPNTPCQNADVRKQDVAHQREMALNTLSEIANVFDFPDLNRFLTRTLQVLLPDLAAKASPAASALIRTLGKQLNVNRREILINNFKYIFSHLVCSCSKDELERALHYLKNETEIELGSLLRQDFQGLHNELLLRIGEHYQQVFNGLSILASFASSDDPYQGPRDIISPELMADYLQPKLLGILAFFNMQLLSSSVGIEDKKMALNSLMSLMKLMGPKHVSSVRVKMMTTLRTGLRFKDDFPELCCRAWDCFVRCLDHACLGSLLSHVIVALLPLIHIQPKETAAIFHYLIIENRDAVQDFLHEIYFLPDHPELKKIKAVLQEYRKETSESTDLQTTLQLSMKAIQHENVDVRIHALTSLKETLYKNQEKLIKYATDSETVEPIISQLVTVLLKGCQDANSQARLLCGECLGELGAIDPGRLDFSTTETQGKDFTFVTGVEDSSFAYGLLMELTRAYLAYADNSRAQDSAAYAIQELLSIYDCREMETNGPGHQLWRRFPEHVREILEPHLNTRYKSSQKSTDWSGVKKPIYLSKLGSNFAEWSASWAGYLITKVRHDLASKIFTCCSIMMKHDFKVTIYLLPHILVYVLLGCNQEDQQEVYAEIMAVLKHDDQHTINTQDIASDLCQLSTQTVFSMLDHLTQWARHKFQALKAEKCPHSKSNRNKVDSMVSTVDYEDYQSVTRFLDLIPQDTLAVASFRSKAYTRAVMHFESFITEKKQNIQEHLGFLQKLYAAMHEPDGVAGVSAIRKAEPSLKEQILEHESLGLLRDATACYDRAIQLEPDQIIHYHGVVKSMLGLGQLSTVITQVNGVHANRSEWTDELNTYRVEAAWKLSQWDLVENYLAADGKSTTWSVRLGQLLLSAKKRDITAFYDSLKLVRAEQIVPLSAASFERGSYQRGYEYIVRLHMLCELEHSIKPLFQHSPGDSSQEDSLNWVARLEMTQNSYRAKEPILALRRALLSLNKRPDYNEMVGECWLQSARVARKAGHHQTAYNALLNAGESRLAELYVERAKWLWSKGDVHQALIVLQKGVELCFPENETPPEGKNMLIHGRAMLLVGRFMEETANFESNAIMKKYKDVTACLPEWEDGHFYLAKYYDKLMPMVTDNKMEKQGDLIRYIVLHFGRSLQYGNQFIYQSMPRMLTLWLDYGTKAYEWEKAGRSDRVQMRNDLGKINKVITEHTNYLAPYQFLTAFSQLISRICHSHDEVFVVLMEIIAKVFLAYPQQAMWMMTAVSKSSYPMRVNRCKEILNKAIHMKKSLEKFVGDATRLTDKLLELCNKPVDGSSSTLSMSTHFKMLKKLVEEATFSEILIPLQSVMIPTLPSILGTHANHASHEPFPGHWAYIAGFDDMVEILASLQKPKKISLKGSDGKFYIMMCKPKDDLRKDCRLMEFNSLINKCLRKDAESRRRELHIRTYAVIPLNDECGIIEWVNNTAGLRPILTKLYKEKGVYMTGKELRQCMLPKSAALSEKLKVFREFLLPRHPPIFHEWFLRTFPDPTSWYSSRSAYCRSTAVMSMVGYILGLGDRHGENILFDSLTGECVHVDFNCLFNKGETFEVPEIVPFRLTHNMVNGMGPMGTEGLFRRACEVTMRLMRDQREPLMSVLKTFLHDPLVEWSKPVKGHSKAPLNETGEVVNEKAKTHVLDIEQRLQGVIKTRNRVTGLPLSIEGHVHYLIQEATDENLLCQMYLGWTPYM

SMILES | pKi
COc1cccc(N2CCN(c3cnc(N)c(-c4nc5ccc(C)cc5[nH]4)n3)CC2)c1 [Compound I-48, 5-(4-(3-methoxyphenyl)piperazin-1-yl)-3-(6-methyl-1H-benzo[d]imidazol-2-yl)pyrazin-2-amine] | 6.00 to 7.00
Nc1ncc(C2=CCN(C(=O)C3CCCC3)CC2)nc1-c1nc2ccccc2[nH]1 [Compound I-206, (4-(5-amino-6-(1H-benzo[d]imidazol-2-yl)pyrazin-2-yl)-5,6-dihydropyridin-1(2H)-yl)(cyclopentyl)methanone] | 6.00 to 7.00
Nc1ncc(C2=CCN(C(=O)c3ccccn3)CC2)nc1-c1nc2ccccc2[nH]1 [Compound I-139, (4-(5-amino-6-(1H-benzo[d]imidazol-2-yl)pyrazin-2-yl)-5,6-dihydropyridin-1(2H)-yl)(pyridin-2-yl)methanone] | > 7.00
CCS(=O)(=O)N1CC2CN(c3cnc(N)c(-c4nc5ccccc5[nH]4)n3)CC2C1 (stereo not drawn) [Compound I-295, 3-(1H-benzimidazol-2-yl)-5-(2-ethylsulfonyl-1,3,3a,4,6,6a-hexahydropyrrolo[3,4-c]pyrrol-5-yl)pyrazin-2-amine] | 5.00 to 6.00
N#CCN1CC=C(c2cnc(N)c(-c3nc4ccccc4[nH]3)n2)CC1 [Compound I-76, 2-(4-(5-amino-6-(1H-benzo[d]imidazol-2-yl)pyrazin-2-yl)-5,6-dihydropyridin-1(2H)-yl)ethanenitrile] | 6.00 to 7.00
CCS(=O)(=O)N1CC2CN(c3cnc(N)c(-c4nnc(-c5ccc(CNC)cc5)o4)n3)CC2C1 (stereo not drawn) [Compound I-332, 5-(2-Ethylsulfonyl-1,3,3a,4,6,6a-hexahydropyrrolo[3,4-c]pyrrol-5-yl)-3-[5-[4-(methylaminomethyl)phenyl]-1,3,4-oxadiazol-2-yl]pyrazin-2-amine] | 5.00 to 6.00
Nc1ncc(C2=CCN(C(=O)Cc3ccccc3)CC2)nc1-c1nc2ccccc2[nH]1 [Compound I-213, 1-(4-(5-amino-6-(1H-benzo[d]imidazol-2-yl)pyrazin-2-yl)-5,6-dihydropyridin-1(2H)-yl)-2-phenylethanone] | 6.00 to 7.00
Nc1ncc(N2CCN(C(=O)N3CCCCC3)CC2)nc1-c1nc2ccccc2[nH]1 [Compound I-270, (4-(5-amino-6-(1H-benzo[d]imidazol-2-yl)pyrazin-2-yl)piperazin-1-yl)(piperidin-1-yl)methanone] | 5.00 to 6.00
Cc1ccc2nc(-c3nc(N4CCC(N(C)C)CC4)cnc3N)[nH]c2c1 [Compound I-49, 5-(4-(dimethylamino)piperidin-1-yl)-3-(6-methyl-1H-benzo[d]imidazol-2-yl)pyrazin-2-amine] | 5.00 to 6.00
Nc1ncc(N2CCN(C(=O)N3CCCCC3)CC2)nc1C(=O)Nc1ccccn1 [Compound I-247, 3-amino-6-(4-(piperidine-1-carbonyl)piperazin-1-yl)-N-(pyridin-2-yl)pyrazine-2-carboxamide] | 5.00 to 6.00
CCOC(=O)N1CCN(c2cnc(N)c(-c3nc4ccc(C)cc4[nH]3)n2)CC1 [Compound I-32, ethyl 4-(5-amino-6-(6-methyl-1H-benzo[d]imidazol-2-yl)pyrazin-2-yl)piperazine-1-carboxylate] | 5.00 to 6.00
CCC(CC)C(=O)N1CCN(c2cnc(N)c(C(=O)Nc3ccccn3)n2)CC1 [Compound I-212, 3-amino-6-(4-(2-ethylbutanoyl)piperazin-1-yl)-N-(pyridin-2-yl)pyrazine-2-carboxamide] | 5.00 to 6.00
CC(=O)NC1CCN(c2cnc(N)c(-c3nc4ccc(C)cc4[nH]3)n2)CC1 [Compound I-43, N-(1-(5-amino-6-(6-methyl-1H-benzo[d]imidazol-2-yl)pyrazin-2-yl)piperidin-4-yl)ethanamide] | 6.00 to 7.00
Nc1ncc(N2CCN(C(=O)N3CCCC3)CC2)nc1C(=O)Nc1ccccn1 [Compound I-239, 3-amino-N-(pyridin-2-yl)-6-(4-(pyrrolidine-1-carbonyl)piperazin-1-yl)pyrazine-2-carboxamide] | 5.00 to 6.00
Nc1ncc(C2=CCN(C(=O)CCC(=O)O)CC2)nc1-c1nc2ccccc2[nH]1 [Compound I-324, 4-(4-(5-Amino-6-(1H-benzo[d]imidazol-2-yl)pyrazin-2-yl)-5,6-dihydropyridin-1(2H)-yl)-4-oxobutanoic acid] | 6.00 to 7.00
Nc1ncc(N2CCN(C(=O)N3CCCC3)CC2)nc1-c1nc2ccccc2[nH]1 [Compound I-267, (4-(5-amino-6-(1H-benzo[d]imidazol-2-yl)pyrazin-2-yl)piperazin-1-yl)(pyrrolidin-1-yl)methanone] | 5.00 to 6.00
Cc1ccc2nc(-c3nc(N4CCN(c5ncccc5C(F)(F)F)CC4)cnc3N)[nH]c2c1 [Compound I-52, 3-(6-methyl-1H-benzo[d]imidazol-2-yl)-5-(4-(3-(trifluoromethyl)pyridin-2-yl)piperazin-1-yl)pyrazin-2-amine] | 5.00 to 6.00
CN(C)S(=O)(=O)N[C@H]1CCN(c2cnc(N)c(-c3nc4ccccc4[nH]3)n2)C1 [Compound I-85, (S)-N-(1-(5-amino-6-(1H-benzo[d]imidazol-2-yl)pyrazin-2-yl)pyrrolidin-3-yl)propane-2-N,N-dimethylsulfamide] | 5.00 to 6.00
Cc1ccc2nc(-c3nc(N4CCC(O)CC4)cnc3N)[nH]c2c1 [Compound I-5, 1-(5-amino-6-(6-methyl-1H-benzo[d]imidazol-2-yl)pyrazin-2-yl)piperidin-4-ol] | 5.00 to 6.00

Next, values leading:

pKi | SMILES
6.00 to 7.00 | Nc1ncc(N2CCN(S(=O)(=O)c3ccsc3)CC2)nc1-c1nnc(-c2ccccc2)o1 [Compound I-98, 3-(5-phenyl-1,3,4-oxadiazol-2-yl)-5-(4-(thiophen-3-ylsulfonyl)piperazin-1-yl)pyrazin-2-amine]
> 7.00 | Cn1cnc(S(=O)(=O)N2CC=C(c3cnc(N)c(-c4nnc(-c5ccccc5)o4)n3)CC2)c1 [Compound I-120, 5-(1-(1-methyl-1H-imidazol-4-ylsulfonyl)-1,2,3,6-tetrahydropyridin-4-yl)-3-(5-phenyl-1,3,4-oxadiazol-2-yl)pyrazin-2-amine]
> 7.00 | Nc1ncc(C2=CCN(S(=O)(=O)c3cccnc3)CC2)nc1-c1nnc(-c2ccccc2)o1 [Compound I-222, 3-(5-phenyl-1,3,4-oxadiazol-2-yl)-5-(1-(pyridin-3-ylsulfonyl)-1,2,3,6-tetrahydropyridin-4-yl)pyrazin-2-amine]
> 7.00 | CC(=O)N1CC=C(c2cnc(N)c(-c3nnc(-c4ccccc4)o3)n2)CC1 [Compound I-125, 1-(4-(5-amino-6-(5-phenyl-1,3,4-oxadiazol-2-yl)pyrazin-2-yl)-5,6-dihydropyridin-1(2H)-yl)ethanone]
6.00 to 7.00 | CNCc1ccc(-c2nnc(-c3nc(N4CCC(O)C4)cnc3N)o2)cc1 (stereo not drawn) [Compound I-371, (35)-1-[5-Amino-6-[5-[4-(methylaminomethyl)phenyl]-1,3,4-oxadiazol-2-yl]pyrazin-2-yl]pyrrolidin-3-ol]
6.00 to 7.00 | CCS(=O)(=O)N1CCN(c2cnc(N)c(-c3nnc(-c4ccco4)o3)n2)CC1 [Compound I-297, 5-(4-ethylsulfonylpiperazin-1-yl)-3-[5-(2-furyl)-1,3,4-oxadiazol-2-yl]pyrazin-2-amine]
> 7.00 | Nc1ncc(C2=CCN(C(=O)COc3ccccc3)CC2)nc1-c1nnc(-c2ccccc2)o1 [Compound I-126, 1-(4-(5-amino-6-(5-phenyl-1,3,4-oxadiazol-2-yl)pyrazin-2-yl)-5,6-dihydropyridin-1(2H)-yl)-2-phenoxyethanone]
6.00 to 7.00 | CCC(=O)N(C)C1CCN(c2cnc(N)c(-c3nnc(-c4ccc(CNC)cc4)o3)n2)CC1 [Compound I-365, N-(1-(5-Amino-6-(5-(4-((methylamino)methyl)phenyl)-1,3,4-oxadiazol-2-yl)pyrazin-2-yl)piperidin-4-yl)-N-methylpropionamide]
6.00 to 7.00 | Cc1cccc(C)c1C(=O)N1CCN(c2cnc(N)c(-c3nnc(-c4ccccc4)o3)n2)CC1 [Compound I-258, (4-(5-amino-6-(5-phenyl-1,3,4-oxadiazol-2-yl)pyrazin-2-yl)piperazin-1-yl)(2,6-dimethylphenyl)methanone]
> 7.00 | COCCOC(=O)N1CC=C(c2cnc(N)c(-c3nnc(-c4ccccc4)o3)n2)CC1 [Compound I-224, 2-methoxyethyl 4-(5-amino-6-(5-phenyl-1,3,4-oxadiazol-2-yl)pyrazin-2-yl)-5,6-dihydropyridine-1(2H)-carboxylate]
5.00 to 6.00 | Nc1ncc(N2CCN(Cc3ccccc3)CC2)nc1-c1nnc(-c2ccccc2)o1 [Compound I-300, 5-(4-benzylpiperazin-1-yl)-3-(5-phenyl-1,3,4-oxadiazol-2-yl)pyrazin-2-amine]
> 7.00 | CCS(=O)(=O)N1CCN(c2cnc(N)c(-c3nnc(-c4ccccc4)o3)n2)CC1 [Compound I-18, 5-(4-(ethylsulfonyl)piperazin-1-yl)-3-(5-phenyl-1,3,4-oxadiazol-2-yl)pyrazin-2-amine]
5.00 to 6.00 | CC(=O)C1(c2ccccc2)CCN(c2cnc(N)c(-c3nc4ccc(C)cc4[nH]3)n2)CC1 [Compound I-44, 1-(1-(5-amino-6-(6-methyl-1H-benzo[d]imidazol-2-yl)pyrazin-2-yl)-4-phenylpiperidin-4-yl)ethanone]
> 7.00 | Nc1ncc(C2=CCN(C(=O)c3c(F)cccc3F)CC2)nc1-c1nnc(-c2ccccc2)o1 [Compound I-133, (4-(5-amino-6-(5-phenyl-1,3,4-oxadiazol-2-yl)pyrazin-2-yl)-5,6-dihydropyridin-1(2H)-yl)(2,6-difluorophenyl)methanone]
